The nature of one series: physchem. Conditions: pH 7.4 buffer.
A further series in a line: in vivo. The note with it: Long-Evans, rat, brain/plasma, po, 10 mg/kg.
The conditions of series [1]: rat, in vivo, po, 10 mg/kg.
Description: Drug concentration in Long-Evans rat brain at 10 mg/kg, po
For series [2] the following is noted: rat, in vivo, po, 10 mg/kg. The source holds these as a separate data set.
Description: Plasma concentration in Long-Evans rat at 10 mg/kg, po

≈ marks a conversion by molar mass, not a printed value.

Description for in vivo: Ratio of drug concentration in Long-Evans rat brain to plasma at 10 mg/kg, po
Description for physchem: Solubility in pH 7.4 buffer

The solubility is how much of the substance goes into solution per volume. High values mean much dissolved substance, low ones little dissolved substance. Compound `CS(=O)(=O)n1ccc2cc(C(=O)N3CCCC(c4ccnc5ncnn45)C3)ccc21` (racemic) came in with a solubility in “physchem” of 105 µM (≈ 44.6 µg/mL).
A word on the Kp: it is tissue or fluid exposure divided by exposure in the circulation. For `C[C@@H]1CCN(C(=O)c2ccc3occc3c2)C[C@H]1c1cc(C(F)F)nc2ncnn12`, the Kp in the series “in vivo” worked out at 0.5. For the same compound, the Drug uptake in series [1] came out at 788 ng/mL. Moreover, in series [2], the Cp was determined as 1640 ng/mL.

Source of the values: ChEMBL document CHEMBL4665888, “[1,2,4]Triazolo[1,5-a]pyrimidine Phosphodiesterase 2A Inhibitors: Structure and Free-Energy Perturbation-Guided Exploration” (J Med Chem, 2020).
